Data as given in ChEMBL document CHEMBL5126508, “Therapeutic potential of quinazoline derivatives for Alzheimer's disease: A comprehensive review” (Eur J Med Chem, 2022).

Key:
[1] = target: Cyclin-dependent kinase 1 (Homo sapiens, UniProt P06493); assay: Inhibition of CDK1 (unknown origin)
[2] = target: T1, Glycogen synthase kinase-3 (Homo sapiens, UniProt P49840+P49841); assay: Inhibition of GSK3alpha/beta (unknown origin); assay type: protein assay
[3] = target: T2, Cyclin-dependent kinase 5 (Homo sapiens, UniProt Q00535); assay: Inhibition of CDK5 (unknown origin)
Target sequence in this assay (Q00535 whole entry): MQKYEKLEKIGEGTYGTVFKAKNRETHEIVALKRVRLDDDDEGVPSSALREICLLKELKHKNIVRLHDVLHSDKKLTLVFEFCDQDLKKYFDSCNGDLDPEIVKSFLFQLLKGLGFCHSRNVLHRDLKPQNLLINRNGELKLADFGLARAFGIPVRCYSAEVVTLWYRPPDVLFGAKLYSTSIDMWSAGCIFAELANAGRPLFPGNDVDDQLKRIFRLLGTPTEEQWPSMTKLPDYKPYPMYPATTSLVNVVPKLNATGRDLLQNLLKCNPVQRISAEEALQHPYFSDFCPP

Cholinesterase [4] = target: T3, Cholinesterase (Homo sapiens, UniProt P06276); assay: Inhibition of BuChE (unknown origin)
T3 sequence (P06276 whole entry): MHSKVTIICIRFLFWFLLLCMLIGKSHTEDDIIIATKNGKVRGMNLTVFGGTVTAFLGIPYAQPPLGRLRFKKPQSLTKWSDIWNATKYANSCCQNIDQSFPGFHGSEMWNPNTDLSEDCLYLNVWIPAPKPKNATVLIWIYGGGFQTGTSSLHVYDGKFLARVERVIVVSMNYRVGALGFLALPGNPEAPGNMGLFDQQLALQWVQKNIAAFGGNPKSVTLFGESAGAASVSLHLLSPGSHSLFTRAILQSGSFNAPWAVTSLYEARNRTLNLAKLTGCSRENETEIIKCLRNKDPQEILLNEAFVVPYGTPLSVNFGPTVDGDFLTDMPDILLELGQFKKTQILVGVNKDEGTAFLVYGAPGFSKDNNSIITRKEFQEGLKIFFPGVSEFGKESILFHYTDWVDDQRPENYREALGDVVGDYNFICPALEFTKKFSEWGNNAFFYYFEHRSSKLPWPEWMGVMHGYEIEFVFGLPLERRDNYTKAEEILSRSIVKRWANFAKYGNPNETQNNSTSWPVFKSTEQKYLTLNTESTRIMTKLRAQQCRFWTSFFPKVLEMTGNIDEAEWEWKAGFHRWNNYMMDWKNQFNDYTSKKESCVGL

Acetylcholinesterase [5] = target: T4, Acetylcholinesterase (Homo sapiens, UniProt P22303); assay: Inhibition of AChE (unknown origin)
T4 sequence (P22303 whole entry): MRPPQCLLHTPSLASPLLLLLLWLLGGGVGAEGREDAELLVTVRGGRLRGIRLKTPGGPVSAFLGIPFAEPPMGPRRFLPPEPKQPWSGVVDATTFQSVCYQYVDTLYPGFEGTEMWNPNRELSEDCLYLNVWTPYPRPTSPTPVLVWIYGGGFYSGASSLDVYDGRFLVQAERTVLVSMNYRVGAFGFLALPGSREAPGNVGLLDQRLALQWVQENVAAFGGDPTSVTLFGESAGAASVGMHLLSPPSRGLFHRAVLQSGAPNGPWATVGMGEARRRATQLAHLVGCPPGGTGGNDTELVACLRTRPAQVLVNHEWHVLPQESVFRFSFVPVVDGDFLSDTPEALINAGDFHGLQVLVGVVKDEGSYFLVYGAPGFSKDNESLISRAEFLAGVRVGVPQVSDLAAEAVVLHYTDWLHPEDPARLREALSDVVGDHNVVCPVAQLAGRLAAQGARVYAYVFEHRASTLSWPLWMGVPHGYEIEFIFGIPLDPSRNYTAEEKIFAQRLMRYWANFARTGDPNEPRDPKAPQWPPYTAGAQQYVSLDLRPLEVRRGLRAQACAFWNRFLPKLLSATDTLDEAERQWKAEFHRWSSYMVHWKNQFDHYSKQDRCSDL

Acetylcholinesterase [6] = target: T4, Acetylcholinesterase; assay: Inhibition of human AChE
[7] = Ratio of IC50 for equine BuChE to IC50 for electric eel AChE
Cholinesterase [8] = target: T5, Cholinesterase (Equus caballus, UniProt P81908); assay: Inhibition of equine serum BuChE
T5 sequence (P81908 whole entry): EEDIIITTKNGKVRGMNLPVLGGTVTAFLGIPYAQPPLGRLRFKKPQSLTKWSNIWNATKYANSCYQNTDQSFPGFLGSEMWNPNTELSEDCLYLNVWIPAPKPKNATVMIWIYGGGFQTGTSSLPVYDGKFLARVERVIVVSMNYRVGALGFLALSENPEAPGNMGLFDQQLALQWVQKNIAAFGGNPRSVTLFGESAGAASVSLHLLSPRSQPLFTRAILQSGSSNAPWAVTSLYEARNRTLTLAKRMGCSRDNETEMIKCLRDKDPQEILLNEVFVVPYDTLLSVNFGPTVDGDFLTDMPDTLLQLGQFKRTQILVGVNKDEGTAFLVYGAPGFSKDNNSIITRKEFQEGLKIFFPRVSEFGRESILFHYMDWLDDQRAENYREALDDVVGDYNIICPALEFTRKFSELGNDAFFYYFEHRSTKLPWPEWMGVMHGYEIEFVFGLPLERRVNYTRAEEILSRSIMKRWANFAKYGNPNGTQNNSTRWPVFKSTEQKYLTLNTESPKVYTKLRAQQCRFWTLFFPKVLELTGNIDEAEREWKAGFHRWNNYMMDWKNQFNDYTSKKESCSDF

Acetylcholinesterase [9] = target: T6, Acetylcholinesterase (Electrophorus electricus, UniProt O42275); assay: Inhibition of electric eel AChE
T6 sequence (O42275 whole entry): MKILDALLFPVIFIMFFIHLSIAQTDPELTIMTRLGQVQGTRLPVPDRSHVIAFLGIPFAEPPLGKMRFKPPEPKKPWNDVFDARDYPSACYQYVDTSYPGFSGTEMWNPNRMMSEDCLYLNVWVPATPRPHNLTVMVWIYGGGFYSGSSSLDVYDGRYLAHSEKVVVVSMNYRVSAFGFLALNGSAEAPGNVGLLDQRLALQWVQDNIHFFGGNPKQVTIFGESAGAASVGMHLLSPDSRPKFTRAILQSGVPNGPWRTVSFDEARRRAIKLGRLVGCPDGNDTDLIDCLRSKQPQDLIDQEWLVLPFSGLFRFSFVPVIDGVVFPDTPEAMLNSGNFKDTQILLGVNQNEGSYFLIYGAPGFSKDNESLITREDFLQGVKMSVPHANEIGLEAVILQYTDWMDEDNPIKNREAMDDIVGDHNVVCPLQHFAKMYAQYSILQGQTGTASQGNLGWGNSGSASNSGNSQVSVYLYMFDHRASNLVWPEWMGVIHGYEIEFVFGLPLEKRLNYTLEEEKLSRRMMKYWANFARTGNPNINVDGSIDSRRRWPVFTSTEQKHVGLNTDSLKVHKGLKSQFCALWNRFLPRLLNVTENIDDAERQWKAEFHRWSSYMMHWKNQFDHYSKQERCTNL

[10] = Antioxidant activity assessed as radical scavenging at 100 ug/ml by DPPH assay relative to control; assay type: functional
Acetylcholinesterase [11] = target: T6, Acetylcholinesterase; assay: Inhibition of electric eel AChE incubated for 25 mins by Ellman's method
Cholinesterase [12] = target: T3, Cholinesterase; assay: Inhibition of BuChE (unknown origin) at 100 uM relative to control
[13] = Inhibition of Kainate receptor (unknown origin); parameters: species or system Homo sapiens
[14] = Inhibition of PDE7 (unknown origin); parameters: species or system Homo sapiens
[15] = target: T7, Casein kinase I delta/epsilon (Homo sapiens, UniProt P48730+P49674); assay: Inhibition of CK1delta/epsilon (unknown origin); assay type: protein-complex assay
[16] = target: Dual specificity tyrosine-phosphorylation-regulated kinase 1A (Homo sapiens, UniProt Q13627); assay: Inhibition of DYRK1A (unknown origin)
[17] = target: T1, Glycogen synthase kinase-3; assay: Inhibition of GSK3alpha/beta (unknown origin) at 1 uM relative to control; assay type: protein assay
[18] = target: T2, Cyclin-dependent kinase 5; assay: Inhibition of CDK5 (unknown origin) at 1 uM relative to control
Target sequence in this assay (Q00535 whole entry, looked up): as the sequence (Q00535 whole entry) above

Acetylcholinesterase [19] = target: T6, Acetylcholinesterase; assay: Inhibition of electric eel AChE using acetylthiocholine incubated for 30 mins by measuring hydrolysis of substrate by Ellman's method
[20] = target: T8, Amine oxidase [flavin-containing] B (Homo sapiens, UniProt P27338); assay: Inhibition of MAO-B (unknown origin)
T8 sequence (P27338 whole entry): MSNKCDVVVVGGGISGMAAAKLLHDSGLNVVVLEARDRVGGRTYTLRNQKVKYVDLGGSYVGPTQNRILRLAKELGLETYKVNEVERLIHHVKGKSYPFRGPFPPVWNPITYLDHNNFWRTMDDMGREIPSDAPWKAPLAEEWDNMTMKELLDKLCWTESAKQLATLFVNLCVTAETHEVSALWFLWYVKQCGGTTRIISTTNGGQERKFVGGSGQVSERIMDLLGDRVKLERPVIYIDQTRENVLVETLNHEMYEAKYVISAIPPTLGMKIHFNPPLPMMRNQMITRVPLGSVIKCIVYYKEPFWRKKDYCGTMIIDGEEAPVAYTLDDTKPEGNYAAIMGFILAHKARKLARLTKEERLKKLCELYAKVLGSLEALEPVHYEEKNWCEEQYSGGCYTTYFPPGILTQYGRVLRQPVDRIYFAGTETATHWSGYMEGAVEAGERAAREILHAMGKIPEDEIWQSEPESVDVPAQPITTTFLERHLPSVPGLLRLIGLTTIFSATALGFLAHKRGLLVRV

[21] = target: T9, Amine oxidase [flavin-containing] A (Homo sapiens, UniProt P21397); assay: Inhibition of MAO-A (unknown origin)
T9 sequence (P21397 whole entry): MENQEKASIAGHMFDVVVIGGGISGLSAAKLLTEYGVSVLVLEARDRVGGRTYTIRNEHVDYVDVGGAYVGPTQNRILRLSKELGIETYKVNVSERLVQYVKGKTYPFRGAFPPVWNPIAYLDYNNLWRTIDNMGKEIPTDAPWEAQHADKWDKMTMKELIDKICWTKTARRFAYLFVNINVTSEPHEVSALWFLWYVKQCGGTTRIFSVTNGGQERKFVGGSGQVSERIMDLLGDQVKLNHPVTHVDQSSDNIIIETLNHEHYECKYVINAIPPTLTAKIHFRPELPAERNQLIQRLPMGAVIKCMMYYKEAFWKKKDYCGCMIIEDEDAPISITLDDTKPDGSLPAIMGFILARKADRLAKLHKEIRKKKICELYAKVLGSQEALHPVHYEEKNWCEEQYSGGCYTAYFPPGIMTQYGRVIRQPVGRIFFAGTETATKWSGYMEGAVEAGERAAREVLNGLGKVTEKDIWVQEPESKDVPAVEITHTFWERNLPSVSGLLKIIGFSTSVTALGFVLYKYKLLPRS

[22] = Antioxidant activity assessed as radical scavenging incubated for 90 mins in dark DPPH assay; assay type: functional
Beta-secretase 1 [23] = target: T10, Beta-secretase 1 (Homo sapiens, UniProt P56817); assay: Inhibition of recombinant human BACE1 in human SH-SY5Y cells using fluorogenic 7-methoxycoumarin-4-yl)acetyl-Ser-Glu-Val-Asn-Leu-Asp-Ala-Glu-Phe-ArgLys(2, 4-dinitrophenyl)-Arg-Arg-NH2 as substrate measured every 5 mins for 120 mins by WCA; assay type: cell-based
T10 sequence (P56817 whole entry): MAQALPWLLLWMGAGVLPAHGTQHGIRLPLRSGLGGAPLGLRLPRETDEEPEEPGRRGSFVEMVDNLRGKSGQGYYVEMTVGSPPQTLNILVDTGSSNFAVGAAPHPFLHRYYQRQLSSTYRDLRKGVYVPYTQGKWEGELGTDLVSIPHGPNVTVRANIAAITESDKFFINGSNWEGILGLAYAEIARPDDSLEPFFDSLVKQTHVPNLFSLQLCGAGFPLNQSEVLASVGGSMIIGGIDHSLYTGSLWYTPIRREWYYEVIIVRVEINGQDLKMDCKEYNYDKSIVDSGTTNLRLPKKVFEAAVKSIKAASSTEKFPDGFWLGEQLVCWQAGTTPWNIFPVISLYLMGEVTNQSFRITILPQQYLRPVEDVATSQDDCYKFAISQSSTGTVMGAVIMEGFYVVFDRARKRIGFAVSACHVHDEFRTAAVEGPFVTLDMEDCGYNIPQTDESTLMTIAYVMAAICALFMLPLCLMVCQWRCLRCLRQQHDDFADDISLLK

Beta-secretase 1 [24] = target: T10, Beta-secretase 1; assay: Inhibition of recombinant human BACE1 using fluorogenic 7-methoxycoumarin-4-yl)acetyl-Ser-Glu-Val-Asn-Leu-Asp-Ala-Glu-Phe-ArgLys(2, 4-dinitrophenyl)-Arg-Arg-NH2 as substrate measured every 5 mins for 120 mins by CFA
SH-SY5Y = assay: Cytotoxicity against human SH-SY5Y cells; assay type: functional, cell-based
Beta-secretase 1 [25] = target: T10, Beta-secretase 1; assay: Inhibition of BACE1 (unknown origin) incubated in dark for 90 mins by FRET assay
[26] = target: T11, Amyloid-beta precursor protein (Homo sapiens, UniProt P05067); assay: Inhibition of amyloid beta 1 to 40 aggregation in human SH-SY5Y cells; assay type: cell-based
T11 sequence (P05067 whole entry): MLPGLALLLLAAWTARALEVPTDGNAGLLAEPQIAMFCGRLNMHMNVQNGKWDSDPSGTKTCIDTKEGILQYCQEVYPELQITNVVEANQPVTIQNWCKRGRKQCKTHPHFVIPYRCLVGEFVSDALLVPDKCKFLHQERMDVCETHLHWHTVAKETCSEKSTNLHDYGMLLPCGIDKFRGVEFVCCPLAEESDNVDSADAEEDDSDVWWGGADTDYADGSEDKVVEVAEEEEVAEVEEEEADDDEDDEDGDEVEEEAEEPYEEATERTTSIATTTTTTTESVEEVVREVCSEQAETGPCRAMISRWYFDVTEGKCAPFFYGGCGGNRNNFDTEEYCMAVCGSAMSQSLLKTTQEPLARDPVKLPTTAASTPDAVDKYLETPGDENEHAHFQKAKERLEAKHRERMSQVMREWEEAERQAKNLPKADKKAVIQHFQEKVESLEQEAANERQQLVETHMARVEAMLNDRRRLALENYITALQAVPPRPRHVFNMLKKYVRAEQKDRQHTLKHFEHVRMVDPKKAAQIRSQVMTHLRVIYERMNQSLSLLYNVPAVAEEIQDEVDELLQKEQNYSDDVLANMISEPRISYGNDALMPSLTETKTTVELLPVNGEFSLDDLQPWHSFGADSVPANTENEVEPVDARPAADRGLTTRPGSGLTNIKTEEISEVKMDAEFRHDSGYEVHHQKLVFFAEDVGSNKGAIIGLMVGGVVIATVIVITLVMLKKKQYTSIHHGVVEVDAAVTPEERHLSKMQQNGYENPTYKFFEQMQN

[27] = target: T11, Amyloid-beta precursor protein; assay: Inhibition of amyloid beta 1 to 42 aggregation in human SH-SY5Y cells; assay type: cell-based
Acetylcholinesterase [28] = target: T4, Acetylcholinesterase; assay: Inhibition of AChE (unknown origin) incubated for 20 mins by TLC analysis
[29] = Ratio of IC50 for electric eel AChE to ratio of IC50 for equine BuChE
Cholinesterase [30] = target: T5, Cholinesterase; assay: Inhibition of equine serum BuChE incubated measured after 25 mins by spectrophotometric analysis; assay type: cell-free
Acetylcholinesterase [31] = target: T6, Acetylcholinesterase; assay: Inhibition of electric eel AChE incubated measured after 25 mins by spectrophotometric analysis
[32] = target: T7, Casein kinase I delta/epsilon; assay: Inhibition of CK1delta/epsilon (unknown origin) at 1 uM relative to control; assay type: protein-complex assay

Cyclin-dependent kinase 1, sequence (P06493 whole entry): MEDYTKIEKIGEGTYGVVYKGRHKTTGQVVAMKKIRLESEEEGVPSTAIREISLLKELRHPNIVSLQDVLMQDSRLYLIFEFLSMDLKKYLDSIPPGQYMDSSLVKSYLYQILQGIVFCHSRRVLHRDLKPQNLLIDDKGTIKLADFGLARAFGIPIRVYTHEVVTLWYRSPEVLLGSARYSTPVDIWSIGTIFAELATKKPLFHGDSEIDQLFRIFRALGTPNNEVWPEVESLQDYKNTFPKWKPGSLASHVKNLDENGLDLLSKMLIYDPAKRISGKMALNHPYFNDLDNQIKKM

COC(=N)c1nc2ccc3ncnc(Nc4ccc(OC)cc4)c3c2s1
IC50 [1]: > 10 µM
IC50 [2]: 0.2 µM
IC50 [3]: > 10 µM

O=C(O)C1=Nc2ccccc2CN1
IC50 (Cholinesterase [4]): > 1000 µM
IC50 (Acetylcholinesterase [5]): 345 µM

c1cc2c(cc1OCCCN1CCCCC1)CN1CCCCCC1=N2
IC50 (Acetylcholinesterase [6]): 0.82 µM
Ratio IC50 [7]: 0.296
IC50 (Cholinesterase [8]): 0.0127 µM
IC50 (Acetylcholinesterase [9]): 0.043 µM

CSc1nc2nc(NNC(=S)NC3CCCCC3)c3ccccc3n2n1
inhibition [10]: 91.2%

Cc1ccccc1-n1c(SCC(=O)N/N=C/c2ccc(Br)cc2)nc2ccccc2c1=O
IC50 (Acetylcholinesterase [11]): 210 µM
inhibition (Cholinesterase [12]): 6.8%

O=c1c2ccccc2nc2n1C(c1cncc3[nH]c4ccccc4c13)CC2O (stereo unspecified)
IC50 (Cholinesterase [4]): 18.2 µM
IC50 (Acetylcholinesterase [5]): 70.5 µM

O=C(O)c1cc2c3cc(-n4cnnc4)c(Cl)cc3[nH]c(=O)n2n1
IC50 [13]: 5.5 µM

O=C(CCN1CCCCC1)Nc1ccc2nc(-c3cc4ccccc4[nH]3)[nH]c(=O)c2c1
IC50 (Cholinesterase [4]): 7.32 µM

c1cc2c(cc1OCCCN1CCCCC1)CN1CCCCC1=N2
IC50 (Acetylcholinesterase [6]): 0.225 µM
Ratio IC50 [7]: 0.197
IC50 (Cholinesterase [8]): 0.00655 µM
IC50 (Acetylcholinesterase [9]): 0.0333 µM

c1cc2c(cc1OCCCN1CCCCC1)CN1CCCC1=N2
IC50 (Acetylcholinesterase [6]): 1.1 µM
Ratio IC50 [7]: 1.76
IC50 (Cholinesterase [8]): 0.122 µM
IC50 (Acetylcholinesterase [9]): 0.0692 µM

c1ccc2c(c1)CCN1Cc3cc(OCCCN4CCCCC4)ccc3N=C21
IC50 (Acetylcholinesterase [6]): 0.216 µM
Ratio IC50 [7]: 174
IC50 (Cholinesterase [8]): 0.955 µM
IC50 (Acetylcholinesterase [9]): 0.0055 µM

O=c1c2cccc(Cl)c2[nH]c(=S)n1-c1c(F)cccc1F
IC50 [14]: 6.1 µM

Nc1ncc2cc3cnccc3cc2n1
IC50 [15]: 0.8 µM
IC50 [16]: 0.18 µM
inhibition [17]: > 10%
inhibition [18]: > 10%

CN1C(=O)C2(Nc3cc(Cl)ccc3-c3ccnn32)c2cc(Cl)ccc21 (stereo unspecified)
IC50 (Cholinesterase [4]): 219 µM
IC50 (Acetylcholinesterase [19]): 88.2 µM

Cn1c(N/N=C(\C=C\c2cccc(Cl)c2)c2ccccc2)nc2ccccc2c1=O
IC50 [20]: 1.15 µM
IC50 [21]: 468 µM

CC1(c2ccc(Cl)cc2)Nc2cc(Cl)ccc2-c2ccnn21 (stereo unspecified)
IC50 (Cholinesterase [4]): > 379 µM
IC50 (Acetylcholinesterase [19]): 358 µM

Cn1c(N/N=C/c2cccc(Cl)c2Cl)nc2ccccc2c1=O
IC50 [22]: > 100 µM

CC1c2cc(Oc3ccccc3)ccc2N=C(N)N1CCCC(=O)N(Cc1cnn(C)c1)C1CCCCC1 (stereo unspecified)
IC50 (Beta-secretase 1 [23]): 0.14 µM
IC50 (Beta-secretase 1 [24]): 0.38 µM
IC50 (SH-SY5Y): 12.5 µM

O=c1c2cccc(Cl)c2[nH]c(=S)n1-c1ccccc1Br
IC50 [14]: 1.8 µM

OC1CCN2Cc3ccccc3N=C12 (stereo unspecified)
IC50 (Cholinesterase [4]): 2.6 µM
IC50 (Acetylcholinesterase [5]): 13.7 µM

O=c1c2ccccc2nc2n1CCC2 [DEOXYVASICINONE]
IC50 (Cholinesterase [4]): 17.8 µM
IC50 (Acetylcholinesterase [5]): 35.2 µM

Cn1c(N/N=C/c2ccc(O)cc2O)nc2ccccc2c1=O
IC50 [22]: 8.4 µM
IC50 (Beta-secretase 1 [25]): 27.6 µM

O=c1c2ccccc2nc2n1C(C1CN=Cc3[nH]c4ccccc4c31)CC2O (stereo unspecified)
IC50 (Cholinesterase [4]): 9.26 µM
IC50 (Acetylcholinesterase [5]): 40.5 µM

Cn1cc(CN(C(=O)CCCN2C(N)=Nc3ccc(Oc4ccccc4)cc3C2CC2CCCCC2)C2CCCCC2)cn1 (stereo unspecified)
IC50 (Beta-secretase 1 [23]): 0.14 µM
IC50 (Beta-secretase 1 [24]): 0.49 µM
IC50 (SH-SY5Y): 11.8 µM

COc1cc(/C=C/c2nc3cc(Cl)ccc3c(=O)[nH]2)ccc1-n1cnc(C)c1
IC50 [26]: > 10 µM
IC50 [27]: 0.66 µM

c1ccc2c(c1)CN1Cc3cc(OCCCN4CCCCC4)ccc3N=C21
IC50 (Acetylcholinesterase [6]): 0.142 µM
Ratio IC50 [7]: 600
IC50 (Cholinesterase [8]): 4.14 µM
IC50 (Acetylcholinesterase [9]): 0.0069 µM

O=c1c2ccccc2nc2n1CC[C@@H]2[C@@H]1CCCN1
IC50 (Acetylcholinesterase [28]): 5.71 µM
IC50 (Cholinesterase [4]): > 500 µM

C=CCNC(=S)NNc1nc2nc(SC)nn2c2ccccc12
inhibition [10]: 91%

O=c1c2ccccc2nc2n1CCC2O (stereo unspecified)
IC50 (Cholinesterase [4]): 10.2 µM
IC50 (Acetylcholinesterase [5]): 76.6 µM

c1ccc2c(c1)CCCN1Cc3cc(OCCCN4CCCCC4)ccc3N=C21
IC50 (Acetylcholinesterase [6]): 0.535 µM
Ratio IC50 [7]: 47
IC50 (Cholinesterase [8]): 2.67 µM
IC50 (Acetylcholinesterase [9]): 0.0571 µM

CC1(c2ccc(Cl)cc2)NC(=O)c2cc(Br)cc(Br)c2N1 (stereo unspecified)
Ratio IC50 [29]: 2.3
IC50 (Cholinesterase [30]): 3.7 µM
IC50 (Acetylcholinesterase [31]): 1.6 µM

CSc1nc2nc(NN)c3ccccc3n2n1
inhibition [10]: 85.9%

NNC(=O)CN1C(=O)c2ccccc2NC1c1ccc2c(c1)OCO2 (stereo unspecified)
IC50 [20]: 83 µM
IC50 [21]: 0.0021 µM

COC(=N)c1nc2ccc3ncnc(Nc4ccc(Br)cc4F)c3c2s1
IC50 [1]: > 10 µM
IC50 [2]: 0.16 µM
IC50 [3]: > 10 µM

O=Cc1ccn(-c2cc3c(cc2Cl)nc(O)n2nc(C(=O)O)cc32)c1
IC50 [13]: 5.1 µM

CSc1nc2nc(N/N=C/c3cccnc3)c3ccccc3n2n1
inhibition [10]: 62%

O=c1[nH]c(CCCO)nc2ccccc12
IC50 (Cholinesterase [4]): 105 µM
IC50 (Acetylcholinesterase [5]): 155 µM

Nc1ncc2ccc3ccncc3c2n1
inhibition [32]: 98%
IC50 [16]: 2.18 µM
inhibition [17]: 98%
inhibition [18]: 100%

CC(C)CC1(CC(C)C)NC(=O)c2ccccc2N1Cc1ccccc1
Ratio IC50 [29]: 3.1
IC50 (Cholinesterase [30]): 2.48 µM

c1ccc2c(c1)CN1CCCC1=N2
IC50 (Cholinesterase [4]): 0.04 µM
IC50 (Acetylcholinesterase [5]): 2.37 µM

COC(=N)c1nc2ccc3ncnc(Nc4ccc5c(c4)OCO5)c3c2s1
IC50 [1]: > 10 µM
IC50 [2]: 0.66 µM
IC50 [3]: > 10 µM

CC(C)CC1(CC(C)C)NC(=O)c2ccccc2N1Cc1ccc(Cl)cc1
Ratio IC50 [29]: 2.6
IC50 (Cholinesterase [30]): 1.56 µM
